Data: patent US20240123079A1 (Seagen Inc., priority 2021, published 2024)
Like-named read-outs stand apart in the source and are kept apart here.

Key:
[1] = tested on: THP1-Dual™ reporter cells; assay: THP1-Dual cell reporter assay (IRF-Lucia luciferase reporter); type: cell-based, human; settings: for potency relative to other free compound: free drug
In short: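 THP1-Dual monocytic cells (~100,000/well) were exposed to compound for 24 h (ADCs 48 h). Secreted IRF-driven Lucia luciferase in the supernatant was quantified by QUANTI-Luc luminescence.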

[2] = In vivo cytokine assay, plasma of Renca tumor-bearing mice; parameters: species or system mouse
Description: Cytokines were measured in mouse plasma harvested at 3, 6, 24, or 48 hours after treatment with compounds or ADCs using a Milliplex MAP mouse cytokine/chemokine magnetic bead panel assay kit (MCYTOMAG-70k custom 11-plex kit: MCP1, MIP1α, MIP1β, TNFα, IFNγ, IL-10, IL-12p70, IL-6, IL-1β, IP10, RANTES) and analyzed using a Luminex™ MAGPIX™ Instrument System. Values that were outside of the standard curve range (<3.2 or […]) were excluded from calculation of the mean values.

Renca cancer cells = assay: Renca tumor model, in vivo anti-tumor activity and weight change; settings: Renca tumor-bearing mice
Description: In some experiments, Renca tumor cells were engineered to express the indicated murine or human target antigen.
When tumor volumes reached 100 mm^3, the mice were dosed with either compounds or ADCs by intraperitoneal or intravenous injection at the indicated dosing schedule and tumor volumes were monitored twice weekly. Compounds were formulated in 40% PEG400 in saline.
A syngeneic system was used to assess the ability of the STING agonist ADCs to induce immune responses in vivo and drive an anti-tumor immune response. The Renca system is a subcutaneous, mouse renal adenocarcinoma model. Female Balb/c mice were implanted with 2×10^6 Renca cells subcutaneously in the flank on day 0. When mean tumor size of 100 mm^3 (measured by using the formula Volume (mm^3)=0.5*Length*Width^2 where length is the longer dimension) was reached mice were randomized into treatment groups of ≥5 mice per group. Animals were then treated intraperitoneally (ADCs or compounds) or intravenously (compounds) with the indicated treatment every 7 days, for 3 doses total (or as indicated). Tumor length and width and the weight of the animals was measured throughout the study and tumor volume was calculated using the formula above. Animals were followed until the tumor volume reached ˜1000 mm^3; animals were then euthanized.

[3] = ADCs: drug linker conjugated to a targeted mAb, 48 h
[4] = Homo sapiens, THP1-Dual, free compounds, 24 h, Lucia reporter signal, read-out: EC50
[5] = Renca tumor-bearing mice, 3 h, 1.86 mg/kg
[6] = Renca tumor-bearing mice, 6 h, 1.86 mg/kg
[7] = Renca tumor-bearing mice, 24 h, 1.86 mg/kg

With `CCn1nc(C)cc1C(=O)Nc1nc2cc(C(N)=O)cc(OC)c2n1C/C=C/Cn1c(NC(=O)c2cc(C)nn2CC)nc2cc(C(N)=O)cc(OCCCN(C)C(=O)[C@H](CC(=O)O)NC(=O)CCN3C(=O)C=CC3=O)c21` [Compound 17, (S,E)-4-((3-((5-carbamoyl-1-(4-(5-carbamoyl-2-(1-ethyl-3-methyl-1H-pyrazole-5-carboxamido)-7-methoxy-1H-benzo[d]imidazol-1-yl)but-2-en-1-yl)-2-(1-ethyl-3-methyl1H-pyrazole-5-carboxamido)-1H-benzo[d]imidazol-7-yl)oxy)propyl)(methyl)amino)-3-(3-(2,5-dioxo-2,5-dihydro-1H-pyrrol-1-yl)propanamido)-4-oxobutanoic acid] the “EC50” value [1, 3] was 2.2 ng/mL and the EC50 [1, 4] was 66.3 nM.

With `CCc1oc(C)cc1C(=O)Nc1nc2cc(C(N)=O)cc(OCCCN(C)C(=O)CCN3C(=O)C=CC3=O)c2n1C/C=C/Cn1c(NC(=O)c2cc(C)nn2CC)nc2cc(C(N)=O)cc(OC)c21` [Compound 106] the “EC50 (ng/mL)” value [1, 3] was >10,000 ng/mL.

For `COc1cc(C(N)=O)cc2nc(NC(=O)C(C)n3cc(Cl)cn3)n(C/C=C/Cn3c(NC(=O)C(C)n4cc(Cl)cn4)nc4cc(C(N)=O)cc(O)c43)c12` (centres unmarked) [Compound 49], the EC50 [1, 4] was over 10000 nM.

With `CCn1nc(C)cc1C(=O)Nc1nc2cc(C(N)=O)cc(O)c2n1C/C=C/Cn1c(NC(=O)c2cc(C)nn2CC)nc2cc(C(N)=O)cc(OCCCNC)c21` [Compound 15b] the EC50 [1, 4] was 5.8 nM and the “potency relative to other free compound” value [1] was “more potent than 12a”.

Work on `CCc1nc(C)oc1C(=O)Nc1nc2cc(C(N)=O)cc(OCCCNC)c2n1C/C=C/Cn1c(NC(=O)c2cc(C)nn2CC)nc2cc(C(N)=O)cc(OC)c21` [Compound 95] yielded an EC50 [1, 4] of 12.9 nM.

For `CCn1nccc1C(=O)Nc1nc2cc(C(N)=O)cc(O)c2n1C/C=C/Cn1c(NC(=O)c2ccnn2CC)nc2cc(C(N)=O)cc(OC)c21` [Compound 37], the EC50 [1, 4] was over 10000 nM.

Work on `COc1cc(C(N)=O)cc2nc(NC(=O)c3cccnn3)n(C/C=C/Cn3c(NC(=O)c4cccnn4)nc4cc(C(N)=O)cc(O)c43)c12` [Compound 42] yielded an EC50 [1, 4] of over 10000 nM.

With `CCc1nc(C)sc1C(=O)Nc1nc2cc(C(N)=O)cc(OCCCN(C)C(=O)CCN3C(=O)C=CC3=O)c2n1C/C=C/Cn1c(NC(=O)c2cc(C)nn2CC)nc2cc(C(N)=O)cc(OC)c21` [Compound 111] the “EC50” value [1, 3] was 13.2 ng/mL.

`CCn1nc(C)cc1C(=O)Nc1nc2cc(C(N)=O)cc(OC)c2n1C/C=C/Cn1c(NC(=O)c2cc(C)nn2CC)nc2cc(C(N)=O)cc(OCCCN(C)C(=O)[C@H](C)NC(=O)CCN3C(=O)CC(SC[C@H](N)C(=O)O)C3=O)c21` (some centres unmarked) [Compound 74] showed an EC50 [1, 4] of 36 nM.

With `COc1cc(C(N)=O)cc2nc(NC(=O)c3nc(C)cs3)n(C/C=C/Cn3c(NC(=O)c4nc(C)cs4)nc4cc(C(N)=O)cc(O)c43)c12` [Compound 38] the EC50 [1, 4] was over 10000 nM.

For `CCn1nc(C)cc1C(=O)Nc1nc2cc(C(N)=O)cc(OC)c2n1C/C=C/Cn1c(NC(=O)c2cc(C)nn2CC)nc2cc(C(N)=O)cc(OCCCN3CCOCC3)c21.O=C(O)C(F)(F)F.O=C(O)C(F)(F)F.O=C(O)C(F)(F)F` [Compound A, (E)-1-(4-(5-carbamoyl-2-(1-ethyl-3-methyl-1H-pyrazole-5-carboxamido)-7-(3-morpholinopropoxy)-1H-benzo[d]imidazol-1-yl)but-2-en-1-yl)-2-(1-ethyl-3-methyl-1H-pyrazole-5-carboxamido)-7-methoxy-1H-benzo[d]imidazole-5-carboxamide tris(2,2,2-trifluoroacetate), reference compound], the EC50 [1, 4] was 3 nM, the “potency relative to other free compound” value [1] was “significantly more potent” and the IL1β in plasma [2, 5] was 1.5 pg/mL. For the same compound, the IL12p70 in plasma [2, 5] was 0.2 pg/mL, the IL-6 in plasma [2, 5] was 3550 pg/mL and the IL-10 in plasma [2, 5] was 0.5 pg/mL. It also gave an IP10 in plasma [2, 5] of 4780 pg/mL, an MCP-1 in plasma [2, 5] of 14500 pg/mL and an IFNγ in plasma [2, 6] of 71.8 pg/mL. For the same compound, the IL1β in plasma [2, 6] was 0.6 pg/mL, the IL12p70 in plasma [2, 6] was 0.2 pg/mL and the IL-6 in plasma [2, 6] was 732 pg/mL. For the same compound, the IL-10 in plasma [2, 6] was under 3.2 pg/mL, the IP10 in plasma [2, 6] was 4980 pg/mL and the IFNγ in plasma [2, 7] was under 3.2 pg/mL. The IL1β in plasma [2, 7] was 0.3 pg/mL, the IL12p70 in plasma [2, 7] was under 3.2 pg/mL and the IL-6 in plasma [2, 7] was 16.4 pg/mL. For the same compound, the IL-10 in plasma [2, 7] was under 3.2 pg/mL, the IP10 in plasma [2, 7] was 890 pg/mL and the “systemic pro-inflammatory cytokine (IL-6 and TNF) production” value ([2]; plasma of tumor-bearing mice) was “induced robust production of IL-6 and TNF”. The “tolerability” value (Renca cancer cells) was “less well tolerated” and the “average weight loss after the 2nd dose” value (Renca cancer cells; q7dx3) was 6.2%.

For `CCn1nc(C)cc1C(=O)Nc1nc2cc(S(=O)(=O)NC)ccc2n1C/C=C/Cn1c(NC(=O)c2cc(C)nn2CC)nc2cc(C(N)=O)cc(OCCCNC)c21` [Compound 128a], the EC50 [1, 4] was over 10000 nM.

`CCn1cc(C(=O)Nc2nc3cc(C(N)=O)cc(OCCCNC)c3n2C/C=C/Cn2c(NC(=O)c3cc(C)nn3CC)nc3cc(C(N)=O)cc(OC)c32)c(C)n1` [Compound 85] gave an EC50 [1, 4] of over 10000 nM.

`CCc1nc(C)oc1C(=O)Nc1nc2cc(C(N)=O)cc(OCCC3CN(C(=O)CCN4C(=O)CC(SC[C@H](N)C(=O)O)C4=O)C3)c2n1C/C=C/Cn1c(NC(=O)c2cc(C)nn2CC)nc2cc(C(N)=O)cc(OC)c21` (stereo partly drawn) [Compound 154, S-(1-(3-(3-(2-((5-carbamoyl-1-((E)-4-(5-carbamoyl-2-(1-ethyl-3-methyl-1H-pyrazole-5-carboxamido)-7-methoxy-1H-benzo[d]imidazol-1-yl)but-2-en-1-yl)-2-(4-ethyl-2-methyloxazole-5-carboxamido)-1H-benzo[d]imidazol-7-yl)oxy)ethyl)azetidin-1-yl)-3-oxopropyl)-2,5-dioxopyrrolidin-3-yl)-L-cysteine] showed an EC50 [1, 4] of over 10000 nM.

In the case of `CCn1nc(C)cc1C(=O)Nc1nc2cc(C(N)=O)cc(OC)c2n1C/C=C/Cn1c(NC(=O)c2cc(C)nn2C)nc2cc(C(N)=O)cc(OCCCOC3CN(C(=O)CCN4C(=O)CC(SC[C@H](N)C(=O)O)C4=O)C3)c21` (stereo partly drawn) [Compound 155, S-(1-(3-(3-(3-((5-carbamoyl-1-((E)-4-(5-carbamoyl-2-(1-ethyl-3-methyl-1H-pyrazole-5-carboxamido)-7-methoxy-1H-benzo[d]imidazol-1-yl)but-2-en-1-yl)-2-(1,3-dimethyl-1H-pyrazole-5-carboxamido)-1H-benzo[d]imidazol-7-yl)oxy)propoxy)azetidin-1-yl)-3-oxopropyl)-2,5-dioxopyrrolidin-3-yl)-L-cysteine], the EC50 [1, 4] is reported as 94 nM.

`CCn1cc(C)nc1C(=O)Nc1nc2cc(C(N)=O)cc(OCCCNC)c2n1C/C=C/Cn1c(NC(=O)c2cc(C)nn2CC)nc2cc(C(N)=O)cc(OC)c21` [Compound 86] showed an EC50 [1, 4] of 2460 nM.

In the case of `CCn1nc(C)cc1C(=O)Nc1nc2cc(C(N)=O)cc(OC)c2n1C/C=C/Cn1c(NC(=O)c2cc(C)nn2CC)nc2cc(C(N)=O)cc(OCCCN(C)C(=O)[C@H](CO)NC(=O)CCN3C(=O)CC(SC[C@H](N)C(=O)O)C3=O)c21` (some centres unmarked) [Compound 75], the EC50 [1, 4] is reported as 57.7 nM.

For `CCn1nc(C)cc1C(=O)Nc1nc2cc(C(N)=O)cc(OC)c2n1C/C=C/Cn1c(NC(=O)c2cc(C)nn2CC)nc2cc(C(N)=O)cc(OCCCN(C)C(=O)OCc3ccc(O[C@@H]4O[C@H](C(=O)O)[C@@H](O)[C@H](O)[C@H]4O)cc3NC(=O)CCNC(=O)CCN3C(=O)C=CC3=O)c21` [Compound 13], the “potency of ADC relative to other ADC” value ([1]; conjugated to a targeted mAb, 48 h) was “more potent”.

In the case of `CCn1nc(C)cc1C(=O)Nc1nc2cc(C(N)=O)cc(OC)c2n1C/C=C/Cn1c(NC(=O)c2cc(C)nn2CC)nc2cc(C(N)=O)cc(OCCCN(C)C(=O)[C@H](Cc3ccccc3)NC(=O)CCN3C(=O)C=CC3=O)c21` [Compound 122], the “EC50” value [1, 3] is reported as 5.6 ng/mL.

With `CCn1nc(C)cc1C(=O)Nc1nc2cc(S(N)(=O)=O)ccc2n1C/C=C/Cn1c(NC(=O)c2cc(C)nn2CC)nc2cc(C(N)=O)cc(OCCCOC3CN(C(=O)CCN4C(=O)C=CC4=O)C3)c21` [Compound 146, (E)-7-(3-((1-(3-(2,5-dioxo-2,5-dihydro-1H-pyrrol-1-yl)propanoyl)azetidin-3-yl)oxy)propoxy)-2-(1-ethyl-3-methyl-1H-pyrazole-5-carboxamido)-1-(4-(2-(1-ethyl-3-methyl-1H-pyrazole-5-carboxamido)-5-sulfamoyl-1H-benzo[d]imidazol-1-yl)but-2-en-1-yl)-1H-benzo[d]imidazole-5-carboxamide] the “EC50 (ng/mL)” value [1, 3] was >10,000 ng/mL.
